Test results as given in US5484717A, “Antibiotic 31F508α1, 31F508α2, 31F508β1, 31F508β2” (American Cyanamid Company, priority 1995, dated 1996).
Values after ≈ are worked out from the molar mass of the structure shown.

How the values were obtained:
[1] = Stability (conversion in neutral or basic solution; decomposition on drying); assay type: physicochemical; settings: listed as α2
Protocol: The crude product is then separated into the α1, α2, β1 and β2 components and further purified by high performance liquid chromatography on a reverse-phase column equilibrated with 0.1% trifluoroacetic acid in water followed by slution with an acetonitrile gradient to 10%. Active fractions are pooled and freeze dried. Freeze dried fractions are dissolved in 0.01M hydrochloric acid, applied to a reverse phase column and eluted with an acetonitrile gradient to 10% resolves the two components α1 and α2. […] Beta is the quinone form of α1 or α2 having lost hydrogens from the oxygens connected to carbon10 and 13.
The freeze dried material is suspended in methanol and the insolubles removed by filtration. The soluble material is concentrated to dryness and the concentrate dissolved in 1% trifluoroacetic acid in water. Insolubles are removed by centrifugation. The soluble material is loaded onto a preparative reverse phase C18 column equilibrated with 0.1% trifluoroacetic acid in water. The column is eluted with an acetonitrile gradient to 10%. Active fractions containing the alpha component are pooled and freeze dried. Active fractions containing the beta component are adjusted to pH 8 with solid ammonium bicarbonate and extracted with methylene chloride. The beta component is stored in methylene chloride as drying leads to rapid decomposition. […]

E. faecalis (ID-2131) = test: In vitro antibacterial activity, agar dilution MIC; assay type: cell-based; settings: Enterococcus faecalis, 18 h, without sheep blood, read-out: Minimum Inhibitory Concentration
Protocol: (§1) The in vitro antibacterial activity of 31F508α1 and α2 is determined against a spectrum of gram-positive and gram-negative bacteria by a standard agar dilution method. Mueller-Hinton agar with and without 5% sheep blood and two-fold decreasing concentrations of either 31F508α1 or α2 are poured into petri dishes. The agar surfaces are inoculated with 1 to 5×10^4 colony forming units of bacteria by means of the Steers replicating device. The lowest concentration of antibiotic that inhibits growth of a bacterial strain after 18 hours incubation is recorded as the minimal inhibitory concentration for that strain. The results are given in Table V with sheeps blood added to the agar.

[2] = test system: Staphylococcus aureus (ID-4379); test: In vitro antibacterial activity, agar dilution MIC; assay type: cell-based; settings: 18 h, without sheep blood, read-out: Minimum Inhibitory Concentration
Protocol: as §1

E. Avium (ID-3953) = test: In vitro antibacterial activity, agar dilution MIC; assay type: cell-based; settings: Enterococcus avium, 18 h, without sheep blood, read-out: Minimum Inhibitory Concentration
Protocol: as §1

[3] = test system: Staphylococcus aureus (SMITH); test: In vitro antibacterial activity, agar dilution MIC; assay type: cell-based; settings: 18 h, without sheep blood, read-out: Minimum Inhibitory Concentration
Protocol: as §1

E. faecalis (12201) = test: In vitro antibacterial activity, agar dilution MIC; assay type: cell-based; settings: Enterococcus faecalis, 18 h, without sheep blood, read-out: Minimum Inhibitory Concentration
Protocol: as §1

[4] = test system: Staphylococcus haemolyticus (ID-4061); test: In vitro antibacterial activity, agar dilution MIC; assay type: cell-based; settings: 18 h, without sheep blood, read-out: Minimum Inhibitory Concentration
Protocol: as §1

E. coli (J2175) = test: In vitro antibacterial activity, agar dilution MIC; assay type: cell-based; settings: Escherichia coli, 18 h, without sheep blood, read-out: Minimum Inhibitory Concentration
Protocol: as §1

[5] = test system: Staphylococcus aureus (ID-2371); test: In vitro antibacterial activity, agar dilution MIC; assay type: cell-based; settings: 18 h, without sheep blood, read-out: Minimum Inhibitory Concentration
Protocol: as §1

E. faecium (12202) = test: In vitro antibacterial activity, agar dilution MIC; assay type: cell-based; settings: Enterococcus faecium, 18 h, without sheep blood, read-out: Minimum Inhibitory Concentration
Protocol: as §1

E. faecalis (ID-4168) = test: In vitro antibacterial activity, agar dilution MIC; assay type: cell-based; settings: Enterococcus faecalis, 18 h, without sheep blood, read-out: Minimum Inhibitory Concentration
Protocol: as §1

[6] = test system: Staphylococcus aureus (ID-2727); test: In vitro antibacterial activity, agar dilution MIC; assay type: cell-based; settings: 18 h, without sheep blood, read-out: Minimum Inhibitory Concentration
Protocol: as §1

M. morganii (VGH 84-11) = test: In vitro antibacterial activity, agar dilution MIC; assay type: cell-based; settings: Morganella morganii, 18 h, without sheep blood, read-out: Minimum Inhibitory Concentration
Protocol: as §1

E. coli (ATCC 25922) = test: In vitro antibacterial activity, agar dilution MIC; assay type: cell-based; settings: Escherichia coli, ATCC25922, without sheep blood, 18 hours, read-out: Minimum Inhibitory Concentration
Protocol: as §1

S. lutea (ATCC 9341) = test: In vitro antibacterial activity, agar dilution MIC; assay type: cell-based; settings: Micrococcus luteus, ATCC9341, without sheep blood, 18 hours, read-out: Minimum Inhibitory Concentration
Protocol: as §1

E. coli (J2445) = test: In vitro antibacterial activity, agar dilution MIC; assay type: cell-based; settings: Escherichia coli, 18 h, without sheep blood, read-out: Minimum Inhibitory Concentration
Protocol: as §1

CNS (ID-3120) = test: In vitro antibacterial activity, agar dilution MIC; assay type: cell-based; settings: 18 h, read-out: Minimum Inhibitory Concentration, CNS (ID-3120), without sheep blood
Protocol: as §1

S. agalactiae (ID-4079) = test: In vitro antibacterial activity, agar dilution MIC; assay type: cell-based; settings: Streptococcus agalactiae, 18 h, read-out: Minimum Inhibitory Concentration, S. acralactiae (ID-4079), without sheep blood
Protocol: as §1

E. faecalis (ID-1829) = test: In vitro antibacterial activity, agar dilution MIC; assay type: cell-based; settings: Enterococcus faecalis, 18 h, without sheep blood, read-out: Minimum Inhibitory Concentration
Protocol: as §1

[7] = test system: P. aeruginosa (ATCC 27853); test: In vitro antibacterial activity, agar dilution MIC; assay type: cell-based; settings: Pseudomonas aeruginosa, ATCC27853, without sheep blood, 18 hours, read-out: Minimum Inhibitory Concentration
Protocol: as §1

E. faecalis (ATCC 29212) = test: In vitro antibacterial activity, agar dilution MIC; assay type: cell-based; settings: Enterococcus faecalis, ATCC29212, 18 h, without sheep blood, read-out: Minimum Inhibitory Concentration
Protocol: as §1

CNS (ID-3941) = test: In vitro antibacterial activity, agar dilution MIC; assay type: cell-based; settings: 18 h, read-out: Minimum Inhibitory Concentration, CNS (ID-3941), without sheep blood
Protocol: as §1

E. faecium (ID-4133) = test: In vitro antibacterial activity, agar dilution MIC; assay type: cell-based; settings: Enterococcus faecium, without sheep blood, 18 hours, read-out: Minimum Inhibitory Concentration
Protocol: as §1

[8] = test system: Staphylococcus aureus (ID-3105); test: In vitro antibacterial activity, agar dilution MIC; assay type: cell-based; settings: 18 h, without sheep blood, read-out: Minimum Inhibitory Concentration
Protocol: as §1

E. faecium (ID-3301) = test: In vitro antibacterial activity, agar dilution MIC; assay type: cell-based; settings: Enterococcus faecium, 18 h, without sheep blood, read-out: Minimum Inhibitory Concentration
Protocol: as §1

[9] = test system: Staphylococcus aureus (ATCC 29213); test: In vitro antibacterial activity, agar dilution MIC; assay type: cell-based; settings: ATCC29213, 18 h, Staphylococcus aureus (ATCC 29213-), without sheep blood, read-out: Minimum Inhibitory Concentration
Protocol: as §1

[10] = test system: Staphylococcus aureus (MEMC-89-4); test: In vitro antibacterial activity, agar dilution MIC; assay type: cell-based; settings: 18 h, without sheep blood, read-out: Minimum Inhibitory Concentration
Protocol: as §1

S. Pyogenes (ID-3187) = test: In vitro antibacterial activity, agar dilution MIC; assay type: cell-based; settings: Streptococcus pyogenes, 18 h, without sheep blood, read-out: Minimum Inhibitory Concentration
Protocol: as §1

[11] = test system: Streptococcus pneumoniae (ID-4444); test: In vitro antibacterial activity, agar dilution MIC; assay type: cell-based; settings: 18 h, without sheep blood, read-out: Minimum Inhibitory Concentration
Protocol: as §1

B. cereus (Bacto) = test: In vitro antibacterial activity, agar dilution MIC; assay type: cell-based; settings: Bacillus cereus, 18 h, without sheep blood, read-out: Minimum Inhibitory Concentration
Protocol: as §1

CNS (4615) = test: In vitro antibacterial activity, agar dilution MIC; assay type: cell-based; settings: 18 h, read-out: Minimum Inhibitory Concentration, CNS (4615), without sheep blood
Protocol: as §1

Escherichia coli#311 = test: In vivo antibacterial activity in intraperitoneally infected mice; set-up: species or system female CD-1 mice; settings: one half hour after infection
Protocol: The in vivo antibacterial activity of antibiotic 31F508α2 is established by infecting female CD-1 mice from Charles River Laboratories,weighing 20+-- 2 g each, intraperitoneally of sufficient bacterial cells suspended in either broth or 5% hog gastric mucin to kill non-treated controls within 24-48 hours. Two-fold serially diluted doses of the antibacterial agent contained in phosphate buffered saline (PBS, pH 7.4, 0.01M) are administered intravenously (0.2 ml) or contained in 0.2% aqueous agar, subcutaneously (0.5 ml) or orally (0.5 ml) one half hour after infection. In each test, five mice are treated per dose level.

COc1c(C)c(O)c2c(c1O)C1COC3C4CC5C(C(C2N2CCOC52)N13)N4C (stereo not drawn) [31F508α2]
Conversion to the beta (quinone) form [1]: converts to the beta form | MIC (E. faecalis (ID-2131)): 250 ng/mL (≈ 623 nM) | MIC [2]: 4 ng/mL (≈ 9.96 nM) | MIC (E. Avium (ID-3953)): 30 ng/mL (≈ 74.7 nM) | MIC [3]: 2 ng/mL (≈ 4.98 nM) | MIC (E. faecalis (12201)): 15 ng/mL (≈ 37.4 nM) | MIC [4]: 2 ng/mL (≈ 4.98 nM) | MIC (E. coli (J2175)): 1000 ng/mL (≈ 2490 nM) | MIC [5]: 4 ng/mL (≈ 9.96 nM) | MIC (E. faecium (12202)): 15 ng/mL (≈ 37.4 nM) | MIC (E. faecalis (ID-4168)): 120 ng/mL (≈ 299 nM) | MIC [6]: 2 ng/mL (≈ 4.98 nM) | MIC (M. morganii (VGH 84-11)): 500 ng/mL (≈ 1250 nM) | MIC (E. coli (ATCC 25922)): 500 ng/mL (≈ 1250 nM) | MIC (S. lutea (ATCC 9341)): 2 ng/mL (≈ 4.98 nM) | MIC (E. coli (J2445)): 4 ng/mL (≈ 9.96 nM) | MIC (CNS (ID-3120)): 2 ng/mL (≈ 4.98 nM) | MIC (S. agalactiae (ID-4079)): 4 ng/mL (≈ 9.96 nM) | MIC (E. faecalis (ID-1829)): 60 ng/mL (≈ 149 nM) | MIC [7]: 2000 ng/mL (≈ 4980 nM) | MIC (E. faecalis (ATCC 29212)): 60 ng/mL (≈ 149 nM) | MIC (CNS (ID-3941)): 2 ng/mL (≈ 4.98 nM) | MIC (E. faecium (ID-4133)): 2 ng/mL (≈ 4.98 nM) | MIC [8]: 4 ng/mL (≈ 9.96 nM) | MIC (E. faecium (ID-3301)): 120 ng/mL (≈ 299 nM) | MIC [9]: 8 ng/mL (≈ 19.9 nM) | MIC [10]: 4 ng/mL (≈ 9.96 nM) | MIC (S. Pyogenes (ID-3187)): 2 ng/mL (≈ 4.98 nM) | MIC [11]: 2 ng/mL (≈ 4.98 nM) | MIC (B. cereus (Bacto)): 250 ng/mL (≈ 623 nM) | MIC (CNS (4615)): 2 ng/mL (≈ 4.98 nM) | Survival Ratios (Escherichia coli#311; SIV (intravenous), 0.25 Mg/Kg): 0/5 | Survival Ratios (Escherichia coli#311; SIV (intravenous), 0.5 Mg/Kg): 0/5 | Survival Ratios (Escherichia coli#311; SIV (intravenous), 1 Mg/Kg): 0/5 | Survival Ratios (Escherichia coli#311; SIV (intravenous), 2 Mg/Kg): 0/5 | Survival Ratios (Escherichia coli#311; SIV (intravenous), 4 Mg/Kg): 0/5 | Survival Ratios (Escherichia coli#311; SOD (oral), 0.25 Mg/Kg): 0/5 | Survival Ratios (Escherichia coli#311; SOD (oral), 0.5 Mg/Kg): 0/5 | Survival Ratios (Escherichia coli#311; SOD (oral), 1 Mg/Kg): 0/5 | Survival Ratios (Escherichia coli#311; SOD (oral), 2 Mg/Kg): 0/5 | Survival Ratios (Escherichia coli#311; SOD (oral), 4 Mg/Kg): 0/5 | Survival Ratios (Escherichia coli#311; SOD (oral), 8 Mg/Kg): 0/5 | Survival Ratios (Escherichia coli#311; SSC (subcutaneous), 0.25 Mg/Kg): 0/5 | Survival Ratios (Escherichia coli#311; SSC (subcutaneous), 0.5 Mg/Kg): 0/5 | Survival Ratios (Escherichia coli#311; SSC (subcutaneous), 1 Mg/Kg): 0/5 | Survival Ratios (Escherichia coli#311; SSC (subcutaneous), 2 Mg/Kg): 0/5 | Survival Ratios (Escherichia coli#311; SSC (subcutaneous), 4 Mg/Kg): 0/5 | Survival Ratios (Escherichia coli#311; SSC (subcutaneous), 8 Mg/Kg): 0/5
